In brackets after ≈: the same amount, converted by molar mass.
The molecules below were run on P. falciparum K1 (assay: Malaria in vitro screening model (3H-hypoxanthine incorporation)). Details: not given.
Assay type: cell-based, Plasmodium falciparum
Description: […] P. falciparum K1 is used in this study. K1 (a clone originating from Thailand) is resistant to chloroquine and pyrimethamine. The strains are maintained in RPMI 1640 medium with 0.36 mM hypoxanthine, supplemented with 25 mM N 2-hydroxyethyipiperazine-N-2-ethane-sulphonic acid (HEPES), 25 mM NaHCO3, neomycin (100 U/mL) and 5 g/L of ALBUMAX® II (lipid-rich bovine serum albumin, GIBCO, Grand Island, N.Y., USA), together with 5% washed human A+ erythrocytes. All cultures and assays are conducted at 37° C. under an atmosphere of 4% CO2, 3% O2 and 93% N2. Cultures are kept in incubation chambers filled with the gas mixture. Subcultures are diluted to a parasitemia of between 0.1 and 0.5% and the medium is changed daily.
Antimalarial activity is assessed using an adaptation of the procedures described by Desjardins et al. (Antimicrob. Agents Chemother. 16:710-718, 1979), and Matile and Pink (In: Lefkovits, I. and Pernis, B. (Eds.), Immunological Methods Vol. IV, Academic Press, San Diego, pp. 221-234, 1990).
Stock drug solutions are prepared in 100% dimethylsulfoxide (DMSO) at 10 mg/mL, and heated or sonicated if necessary to dissolve the sample. After use, the stocks are kept at −20° C. For the assays, the compound is further diluted in serum-free culture medium and finally to the appropriate concentration in complete medium without hypoxanthine.
Assays are performed in sterile 96-well microtiter plates, each well containing 200 μl of parasite culture (0.15% parasitemia, 2.5% hematocrit) with or without serial drug solutions. Seven 2-fold dilutions are used, covering a range from […] to 0.078 μg/mL. For active compounds the highest concentration is lowered (e.g., to […]); for plant extracts the highest concentration is increased to 50 μg/mL. […] After 48 hours of incubation at 37° C., 0.5 μCi ^3H-hypoxanthine is added to each well. Cultures are incubated for a further 24 h before being harvested onto glass-fiber filters and washed with distilled water. The radioactivity is counted using a Betaplate liquid scintillation counter (Wallac, Zurich, Switzerland). The results are recorded as counts per minute per well at each drug concentration and expressed as percentage of the untreated controls. IC50 values are calculated from the sigmoidal inhibition curves using Microsoft EXCEL.

| SMILES | P. falciparum IC50 |
| --- | --- |
| N#Cc1ccc(B(Oc2cccc3cccnc23)c2ccc(F)c(F)c2)cc1 [Compound 97] | 4.036 µg/mL |
| C=CB(Oc1c(N(C)C)cc(Cl)c2cccnc12)c1ccnc(Cl)c1 [Compound 83] | 0.979 µg/mL |
| Fc1cc(B(Oc2cccc3cccnc23)c2cccc(Cl)c2)cc(C(F)(F)F)c1 [Compound 123] | 3.51 µg/mL |
| N#Cc1cccc(B(Oc2cccc3cccnc23)c2ccc(F)cc2F)c1 [Compound 96] | 3.035 µg/mL |
| O=C(OB(c1cccc(Cl)c1)c1cccc(Cl)c1)c1ncccc1OCCN1CCOCC1 [Compound 77] | 1.225 µg/mL |
| Fc1ccc(B(Oc2cccc3cccnc23)c2cccc(Cl)c2)cc1 [Compound 14, (3-Chlorophenyl)(4-fluorophenyl)borinic acid quinolin-8-yl ester] | 1.93 µg/mL |
| N#Cc1ccc(B(Oc2cccc3cccnc23)c2cccc(Cl)c2)cc1 [Compound 26, (3-Chlorophenyl)(4-cyanophenyl)borinic acid quinolin-8-yl ester] | 1.44 µg/mL |

Same assay, conditions: Plasmodium falciparum, K1

| SMILES | IC50 |
| --- | --- |
| Fc1cccc(B(Oc2cccc3cccnc23)c2cccc(Cl)c2)c1 [Compound 17, (3-Chlorophenyl)(3-fluorophenyl)borinic acid quinolin-8-yl ester] | 1.77 µg/mL (≈ 4.89 µM) |
| Clc1ccccc1C=CBOc1cccc2cccnc12 [Compound 36, (2-Chlorophenyl)vinyl borinic acid quinolin-8-yl ester] | 1.5 µg/mL (≈ 5.11 µM) |
| Fc1ccc(B(Oc2cccc3cccnc23)c2cccc(Cl)c2)cc1 [Compound 14, (3-Chlorophenyl)(4-fluorophenyl)borinic acid quinolin-8-yl ester] | 1.9 µg/mL (≈ 5.25 µM) |
| N#Cc1ccc(B(Oc2cccc3cccnc23)c2cccc(Cl)c2)cc1 [Compound 26, (3-Chlorophenyl)(4-cyanophenyl)borinic acid quinolin-8-yl ester] | 1.4 µg/mL (≈ 3.8 µM) |

What follows are molecules tested on T. b. rhodesiense STIB 900 (assay: African sleeping sickness in vitro screening model (Alamar Blue)). Details: not given.
Assay type: cell-based, Trypanosoma brucei rhodesiense
Description: Bloodstream from trypomastigotes of the strains (a) and (c) are maintained in Minimal Essential Medium (MEM) with Earle's salts supplemented according to Baltz, et al., (EMBO J. 4:1273-1277, 1985) with 25 mM N-2-hydroxyethylpiperazine-N′-2-ethane-sulphonic acid (HEPES), 1 g/L additional glucose, 1% MEM non-essential amino acids (100×), 0.2 mM 2-mercaptoethanol, 2 mM sodium pyruvate, 0.1 mM hypoxanthine and 15% heat-inactivated horse serum.
All cultures and assays are conducted at 37° C. under an atmosphere of 5% CO2 in air.
After use the stocks are kept at −20° C. For the assays, the compound is further diluted in serum-free culture medium and finally to the appropriate concentration in complete medium without hypoxanthine.
Assays are performed in 96-well microtiter plates, each well containing 100 μL of culture medium with 8×10^3 bloodstream forms with or without a serial drug dilution. The highest concentration for the test compounds is 90 μg/mL. Seven 3-fold drug dilutions are used, covering a range from 90 μg/mL to 0.123 μg/mL. Each drug is tested in duplicate. Active compounds are tested twice for confirmation. The final result is the mean of the four individual IC50 values. After 72 hrs of incubation, the plates are inspected under an inverted microscope to assure growth of the controls and sterile conditions.
(§1) Ten μL of Alamar Blue (12.5 mg resazurin dissolved in 100 mL distilled water) are now added to each well and the plates are incubated for another 2 hours. Then the plates are read with a Spectramax GEMINI XS microplate fluorometer (Molecular Devices Cooperation, Sunnyvale, Calif., USA) using an excitation wavelength of 536 nm and an emission wave length of 588 nm.
IC50 values are determined using the microplate reader software Softmax Pro (Molecular Devices Cooperation, Sunnyvale, Calif., USA).

| SMILES | T. b. rhodesiense IC50 |
| --- | --- |
| N#Cc1ccc(B(Oc2cccc3cccnc23)c2ccc(F)c(F)c2)cc1 [Compound 97] | 0.37 µg/mL |
| C=CB(Oc1c(N(C)C)cc(Cl)c2cccnc12)c1ccnc(Cl)c1 [Compound 83] | 0.715 µg/mL |
| Fc1cc(B(Oc2cccc3cccnc23)c2cccc(Cl)c2)cc(C(F)(F)F)c1 [Compound 123] | 0.31 µg/mL |
| N#Cc1cccc(B(Oc2cccc3cccnc23)c2ccc(F)cc2F)c1 [Compound 96] | 0.34 µg/mL |
| O=C(OB(c1cccc(Cl)c1)c1cccc(Cl)c1)c1ncccc1OCCN1CCOCC1 [Compound 77] | 17.2 µg/mL |
| Fc1ccc(B(Oc2cccc3cccnc23)c2cccc(Cl)c2)cc1 [Compound 14, (3-Chlorophenyl)(4-fluorophenyl)borinic acid quinolin-8-yl ester] | 0.28 µg/mL |
| N#Cc1ccc(B(Oc2cccc3cccnc23)c2cccc(Cl)c2)cc1 [Compound 26, (3-Chlorophenyl)(4-cyanophenyl)borinic acid quinolin-8-yl ester] | 0.21 µg/mL |

Same assay, conditions: Trypanosoma brucei

| SMILES | IC50 |
| --- | --- |
| Fc1cccc(B(Oc2cccc3cccnc23)c2cccc(Cl)c2)c1 [Compound 17, (3-Chlorophenyl)(3-fluorophenyl)borinic acid quinolin-8-yl ester] | 0.18 µg/mL (≈ 0.498 µM) |
| Clc1ccccc1C=CBOc1cccc2cccnc12 [Compound 36, (2-Chlorophenyl)vinyl borinic acid quinolin-8-yl ester] | 0.18 µg/mL (≈ 0.613 µM) |
| Fc1ccc(B(Oc2cccc3cccnc23)c2cccc(Cl)c2)cc1 [Compound 14, (3-Chlorophenyl)(4-fluorophenyl)borinic acid quinolin-8-yl ester] | 0.5 µg/mL (≈ 1.38 µM) |
| N#Cc1ccc(B(Oc2cccc3cccnc23)c2cccc(Cl)c2)cc1 [Compound 26, (3-Chlorophenyl)(4-cyanophenyl)borinic acid quinolin-8-yl ester] | 0.29 µg/mL (≈ 0.787 µM) |

What follows are molecules tested on Trypanosoma cruzi Tulahuen C2C4 strain (assay: Chagas disease in vitro screening model (beta-galactosidase strain in L-6 cells)). Details: not given.
Assay type: cell-based
Description: Trypanosoma cruzi Tulahuen C2C4 strain, containing the β-galactosidase (Lac Z) gene (Buckner et al., Antimicrob. Agents Chemother 40:2592-2597, 1996) is used for this study.
The infective amastigote and trypomastigote stages are cultivated in L-6 cells (a rat skeletal myoblast cell line) in RPMI 1640 medium supplemented with 2 mM L-glutamine and 10% heat-inactivated fetal bovine serum in 12.5 cm^2 tissue culture flasks. Amastigotes develop intracellularly, differentiate into trypomastigotes, and leave the host cell. These trypomastigotes infect new L-6 cells and are the stages used to initiate an infection in the assay. All cultures and assays are conducted at 37° C. under an atmosphere of 5% CO2 in air.
(§2) After use the stocks are kept at −20° C. For the assays, the compound is further diluted to the appropriate concentration using complete medium.
Assays are performed in sterile 96-well microtiter plates, each well containing 100 μl medium with 2×10^3 L-6 cells. After 24 hours, […] of a trypanosome suspension containing 5×10^3 trypomastigote bloodstream forms from culture are added to the wells. Forty-eight hours later, the medium is removed from the wells and replaced by […] fresh medium, with or without a serial drug dilution. At this point the L-6 cells should be infected with amastigotes and no free trypomastigotes should be in the medium. Seven 3-fold drug dilutions are used, covering a range from 90 μg/mL to 0.123 μg/mL. Each drug is tested in duplicate. Active compounds are tested twice for confirmation. After 96 hours of incubation the plates are inspected under an inverted microscope to assure growth of the controls and sterility.
Then the substrate CPRG/Nonidet (50 μl) is added to all wells. A colour reaction will become visible within 2-6 hours and can be read photometrically at 540 nm. Data are transferred into a graphics program (e.g., EXCEL), sigmoidal inhibition curves determined and IC50 values calculated.

| SMILES | T. cruzi IC50 |
| --- | --- |
| N#Cc1ccc(B(Oc2cccc3cccnc23)c2ccc(F)c(F)c2)cc1 [Compound 97] | 3.45 µg/mL |
| C=CB(Oc1c(N(C)C)cc(Cl)c2cccnc12)c1ccnc(Cl)c1 [Compound 83] | 0.77 µg/mL |
| Fc1cc(B(Oc2cccc3cccnc23)c2cccc(Cl)c2)cc(C(F)(F)F)c1 [Compound 123] | 4 µg/mL |
| N#Cc1cccc(B(Oc2cccc3cccnc23)c2ccc(F)cc2F)c1 [Compound 96] | 3.3 µg/mL |
| O=C(OB(c1cccc(Cl)c1)c1cccc(Cl)c1)c1ncccc1OCCN1CCOCC1 [Compound 77] | 5.15 µg/mL |

Same assay, conditions: Trypanosoma cruzi, TULAHUEN, L6; read-out: T. cruzi IC50

| SMILES | IC50 |
| --- | --- |
| Fc1cccc(B(Oc2cccc3cccnc23)c2cccc(Cl)c2)c1 [Compound 17, (3-Chlorophenyl)(3-fluorophenyl)borinic acid quinolin-8-yl ester] | 1.06 µg/mL (≈ 2.95 µM) |
| Clc1ccccc1C=CBOc1cccc2cccnc12 [Compound 36, (2-Chlorophenyl)vinyl borinic acid quinolin-8-yl ester] | 0.785 µg/mL (≈ 2.67 µM) |

Each molecule was assayed on Leishmania donovani strain MHOM/ET1671L82 (assay: Leishmaniasis in vitro screening model (axenic amastigotes, Alamar Blue)). Details: not given.
Assay type: cell-based
Description: The Leishmania donovani strain MHOM/ET1671L82 (obtained from Dr. S. Croft, London School of Hygiene and Tropical Medicine) is used. The strain is maintained in the Syrian Golden hamster. Amastigotes are collected from the spleen of an infected hamster. Amastigotes are grown in axenic culture at 37° C. in SM medium (Cunningham I., J. Protozoal. 24:325-329, 1977) at pH 5.4 supplemented with 10% heat-inactivated fetal bovine serum (FBS) under an atmosphere of 5% CO2 in air.
as §2
Assays are performed in 96-well flat-bottom microtiter plates (Costar, Corning Inc.), each well containing 100 μl of culture medium with 105 amastigotes from axenic culture with or without a serial drug dilution. Concentration of amastigotes is determined in a CASY cell analyzing system (Scharfe System, Reutlingen, Germany). Before the amastigotes are counted, the parasite culture is passed twice through a 22-gauge needle to break up clusters of amastigotes.
The highest concentration for the test compounds is 90 μg/mL. Seven 3-fold dilutions are used, covering a range from […]. Each drug is tested in duplicate. Active compounds are tested twice for confirmation. After 72 hours of incubation, the plates are inspected under an inverted microscope to assure growth of the controls and sterile conditions.
as §1, with “then” for “now”, “wave length” for “wavelength”
Data are analyzed using the microplate reader software Softmax Pro (Molecular Devices Cooperation, Sunnyvale, Calif., USA). Decrease of fluorescence (i.e. inhibition) is expressed as percentage of the fluorescence of control cultures and plotted against the drug concentrations. The IC50 value is calculated from the sigmoidal inhibition curve by the software program.

| SMILES | L. donovani IC50 |
| --- | --- |
| N#Cc1ccc(B(Oc2cccc3cccnc23)c2ccc(F)c(F)c2)cc1 [Compound 97] | 0.58 µg/mL |
| C=CB(Oc1c(N(C)C)cc(Cl)c2cccnc12)c1ccnc(Cl)c1 [Compound 83] | 1.1 µg/mL |
| Fc1cc(B(Oc2cccc3cccnc23)c2cccc(Cl)c2)cc(C(F)(F)F)c1 [Compound 123] | 0.54 µg/mL |
| N#Cc1cccc(B(Oc2cccc3cccnc23)c2ccc(F)cc2F)c1 [Compound 96] | 0.63 µg/mL |
| O=C(OB(c1cccc(Cl)c1)c1cccc(Cl)c1)c1ncccc1OCCN1CCOCC1 [Compound 77] | 1.1 µg/mL |
| Fc1ccc(B(Oc2cccc3cccnc23)c2cccc(Cl)c2)cc1 [Compound 14, (3-Chlorophenyl)(4-fluorophenyl)borinic acid quinolin-8-yl ester] | 0.48 µg/mL |
| N#Cc1ccc(B(Oc2cccc3cccnc23)c2cccc(Cl)c2)cc1 [Compound 26, (3-Chlorophenyl)(4-cyanophenyl)borinic acid quinolin-8-yl ester] | 0.55 µg/mL |

Same assay, conditions: Leishmania donovani; read-out: L. donovani IC50

| SMILES | IC50 |
| --- | --- |
| Fc1cccc(B(Oc2cccc3cccnc23)c2cccc(Cl)c2)c1 [Compound 17, (3-Chlorophenyl)(3-fluorophenyl)borinic acid quinolin-8-yl ester] | 0.42 µg/mL (≈ 1.16 µM) |
| Clc1ccccc1C=CBOc1cccc2cccnc12 [Compound 36, (2-Chlorophenyl)vinyl borinic acid quinolin-8-yl ester] | 0.39 µg/mL (≈ 1.33 µM) |
| Fc1ccc(B(Oc2cccc3cccnc23)c2cccc(Cl)c2)cc1 [Compound 14, (3-Chlorophenyl)(4-fluorophenyl)borinic acid quinolin-8-yl ester] | 0.37 µg/mL (≈ 1.02 µM) |
| N#Cc1ccc(B(Oc2cccc3cccnc23)c2cccc(Cl)c2)cc1 [Compound 26, (3-Chlorophenyl)(4-cyanophenyl)borinic acid quinolin-8-yl ester] | 0.41 µg/mL (≈ 1.11 µM) |

— patent US20060014723A1, “Anti-parasitic uses of borinic acid complexes” (priority 2004, published 2006)
